What is called IC50 is the concentration that gives 50% inhibition.

What all share (format): biochemical
One test concerns the target KRAS G12C (Homo sapiens (Human), UniProt P01116+P62937, G12C). The experiment in a line: Ras-Raf disruption/FRET/MOA assay, KRAS G12C. The note with it: read-out: KRAS G12C FRET data IC50. From the text:
(§1) Disruption of B-Raf Ras-Binding Domain (BRAF^RBD) Interaction with K-Ras by Compounds of the Invention (Also Called a FRET Assay or an MOA Assay)
(§2) Note—The following protocol describes a procedure for monitoring disruption of K-Ras G12C (GMP-PNP) binding to BRAF^RBD by a compound of the invention. This protocol may also be executed substituting other Ras proteins or nucleotides, such as K-Ras G12D and K-Ras G13D.
(§3) The purpose of this biochemical assay was to measure the ability of test compounds to facilitate ternary complex formation between a nucleotide-loaded K-Ras isoform and Cyclophilin A; the resulting ternary complex disrupts binding to a BRAF^RBD construct, inhibiting K-Ras signaling through a RAF effector. Data is reported as IC50 values.
(§4) In assay buffer containing 25 mM HEPES pH 7.3, 0.002% Tween20, 0.1% BSA, 100 mM NaCl and 5 mM MgCl2, tagless Cyclophilin A, His6-K-Ras-GMPPNP, and GST-BRAF^RBD were combined in a 384-well assay plate at final concentrations of 25 μM, 12.5 nM, and 50 nM, respectively. Compound was present in plate wells as a 10-point 3-fold dilution series starting at a final concentration of 30 μM. After incubation at 25° C. for 3 hours, a mixture of anti-His Eu—W1024 and anti-GST allophycocyanin was then added to assay sample wells at final concentrations of 10 nM and 50 nM, respectively, and the reaction incubated for an additional 1.5 hours. […] Compounds that facilitate disruption of a K-Ras: RAF complex were identified as those eliciting a decrease in the TR-FRET ratio relative to DMSO control wells.

For another test, the target named is KRAS G12S (Homo sapiens (Human), UniProt P01116+P62937, G12S). Description: Ras-Raf disruption/FRET/MOA assay, KRAS G12S. The conditions noted are these: read-out: KRAS G12S FRET IC50.
From the text: as §1, §2, §3, §4

In a further test the target is NRAS G12C (Homo sapiens (Human), UniProt P01111+P62937, G12C). The experiment in a line: Ras-Raf disruption/FRET/MOA assay, NRAS G12C. The note with it: read-out: NRAS G12C FRET data IC50.
From the text: as §1, §2, §3, §4

The target of another test is KRAS G12V (Homo sapiens (Human), UniProt P01116+P62937, G12V). The experiment in a line: Ras-Raf disruption/FRET/MOA assay, KRAS G12V. The conditions noted are these: read-out: KRAS G12V FRET IC50.
From the text: as §1, §2, §3, §4

For a further test, the target named is KRAS WT (Homo sapiens (Human), UniProt P01116+P62937). Description: Ras-Raf disruption/FRET/MOA assay, KRAS WT. The note with it: read-out: KRAS WT FRET IC50.
From the text: as §1, §2, §3, §4

The next test deals with KRAS G13D (Homo sapiens (Human), UniProt P01116+P62937, G13D). Description: Ras-Raf disruption/FRET/MOA assay, KRAS G13D. The note with it: read-out: KRAS G13D FRET IC50.
From the text: as §1, §2, §3, §4

Another test addresses KRAS G12D (Homo sapiens (Human), UniProt P01116+P62937, G12D). The experiment in a line: Ras-Raf disruption/FRET/MOA assay, KRAS G12D. The conditions noted are these: read-out: KRAS G12D FRET IC50.
From the text: as §1, §2, §3, §4

For the next test, the target named is KRAS G13C (Homo sapiens (Human), UniProt P01116+P62937, G13C). The experiment in a line: Ras-Raf disruption/FRET/MOA assay, KRAS G13C. The note with it: read-out: KRAS G13C FRET IC50.
From the text: as §1, §2, §3, §4

KRAS G12V, sequence (P01116 other isoform, or with tags, fused parts or gaps G12V): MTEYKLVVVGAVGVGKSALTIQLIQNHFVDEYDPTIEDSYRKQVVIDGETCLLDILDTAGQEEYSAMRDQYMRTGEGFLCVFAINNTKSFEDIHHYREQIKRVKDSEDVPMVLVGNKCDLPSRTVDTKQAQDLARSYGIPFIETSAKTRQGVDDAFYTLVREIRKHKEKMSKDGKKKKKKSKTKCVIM
KRAS G12V, sequence (P62937 whole entry): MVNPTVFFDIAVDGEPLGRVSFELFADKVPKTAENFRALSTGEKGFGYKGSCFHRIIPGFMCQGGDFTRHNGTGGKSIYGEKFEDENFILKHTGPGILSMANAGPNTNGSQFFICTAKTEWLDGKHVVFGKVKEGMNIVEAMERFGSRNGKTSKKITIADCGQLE
KRAS G13D, sequence (P01116 other isoform, or with tags, fused parts or gaps G13D): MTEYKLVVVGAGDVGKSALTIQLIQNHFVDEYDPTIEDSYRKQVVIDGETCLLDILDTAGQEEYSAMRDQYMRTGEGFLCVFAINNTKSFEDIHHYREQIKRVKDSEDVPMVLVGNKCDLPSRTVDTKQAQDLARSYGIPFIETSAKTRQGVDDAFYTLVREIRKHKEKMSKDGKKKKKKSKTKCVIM
KRAS G13D, sequence (P62937 whole entry): as the sequence (P62937 whole entry) above
NRAS G12C, sequence (P01111 whole entry G12C): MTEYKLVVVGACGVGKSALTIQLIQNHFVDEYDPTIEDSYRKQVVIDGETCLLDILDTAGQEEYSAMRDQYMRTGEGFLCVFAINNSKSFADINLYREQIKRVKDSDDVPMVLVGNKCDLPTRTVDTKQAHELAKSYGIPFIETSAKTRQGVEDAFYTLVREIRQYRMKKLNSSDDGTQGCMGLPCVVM
NRAS G12C, sequence (P62937 whole entry): as the sequence (P62937 whole entry) above
KRAS G12C, sequence (P01116-2 other isoform, or with tags, fused parts or gaps G12C): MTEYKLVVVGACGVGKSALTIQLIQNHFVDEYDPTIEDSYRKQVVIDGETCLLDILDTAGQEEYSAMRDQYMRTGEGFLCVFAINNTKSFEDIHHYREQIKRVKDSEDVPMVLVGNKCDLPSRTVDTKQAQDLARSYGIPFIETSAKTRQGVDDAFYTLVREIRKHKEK
KRAS G12C, sequence (P62937 whole entry, the tested form may be a part): as the sequence (P62937 whole entry) above
KRAS WT, sequence (P01116 other isoform, or with tags, fused parts or gaps): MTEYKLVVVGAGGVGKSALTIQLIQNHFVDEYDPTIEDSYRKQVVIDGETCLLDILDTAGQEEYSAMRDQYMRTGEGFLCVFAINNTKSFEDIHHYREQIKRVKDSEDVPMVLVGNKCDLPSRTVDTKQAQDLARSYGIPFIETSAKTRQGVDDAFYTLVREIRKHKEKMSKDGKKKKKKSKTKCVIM
KRAS WT, sequence (P62937 whole entry): as the sequence (P62937 whole entry) above
KRAS G13C, sequence (P01116 other isoform, or with tags, fused parts or gaps G13C): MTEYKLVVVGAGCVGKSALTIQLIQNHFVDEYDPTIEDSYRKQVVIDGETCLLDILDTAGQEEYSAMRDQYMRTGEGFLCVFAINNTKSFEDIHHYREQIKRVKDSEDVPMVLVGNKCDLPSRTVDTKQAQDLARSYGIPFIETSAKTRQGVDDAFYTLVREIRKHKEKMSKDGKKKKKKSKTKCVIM
KRAS G13C, sequence (P62937 whole entry): as the sequence (P62937 whole entry) above
KRAS G12D, sequence (P01116 other isoform, or with tags, fused parts or gaps G12D): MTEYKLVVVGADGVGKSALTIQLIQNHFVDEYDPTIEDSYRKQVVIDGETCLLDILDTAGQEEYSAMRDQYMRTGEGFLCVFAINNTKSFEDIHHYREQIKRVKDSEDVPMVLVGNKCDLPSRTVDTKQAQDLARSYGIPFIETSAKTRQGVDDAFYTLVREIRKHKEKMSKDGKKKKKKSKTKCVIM
KRAS G12D, sequence (P62937 whole entry): as the sequence (P62937 whole entry) above
KRAS G12S, sequence (P01116 other isoform, or with tags, fused parts or gaps G12S): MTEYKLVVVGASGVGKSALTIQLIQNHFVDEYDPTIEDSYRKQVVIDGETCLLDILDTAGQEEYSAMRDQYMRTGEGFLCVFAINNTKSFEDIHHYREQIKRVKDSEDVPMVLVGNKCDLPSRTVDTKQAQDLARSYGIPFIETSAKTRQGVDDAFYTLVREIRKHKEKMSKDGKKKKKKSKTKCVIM
KRAS G12S, sequence (P62937 whole entry): as the sequence (P62937 whole entry) above

As to `CCn1c(-c2cnccc2COC)c2c3cc(ccc31)-c1cc(O)cc(c1)C[C@H](NC(=O)[C@H](C(C)C)N(C)C(=O)[C@H]1CCN(C(=O)[C@@H]3CO3)C1)C(=O)N1CCC[C@H](N1)C(=O)OCC(C)(C)C2` [Example 31, (3S)—N-((2S)-1-(((6^3S,4S)-1^1-ethyl-25-hydroxy-1^2-(4-(methoxymethyl)pyridin-3-yl)-10,10-dimethyl-5,7-dioxo-6^1,6^2,6^3,6^4,6^5,6^6-hexahydro-1^1H-8-oxa-1 (5,3)-indola-6 (1,3)-pyridazina-2 (1,3)-benzenacycloundecaphane-4-yl)amino)-3-methyl-1-oxobutan-2-yl)-N-methyl-1-((S)-oxirane-2-carbonyl) pyrrolidine-3-carboxamide], the IC50 was in the range of 0.01 to 0.1 µM at KRAS G12C; 0.1 to 1 µM at KRAS G12S; 0.1 to 1 µM on NRAS G12C; 0.1 to 1 µM on KRAS G12V; 1 to 10 µM on KRAS WT; 1 to 10 µM at KRAS G13D. Besides, the IC50 on KRAS G12D fell in the range of 1 to 10 µM; on KRAS G13C, 0.1 to 1 µM.

For the compound `CCn1c(-c2cccnc2COC)c2c3cc(ccc31)-c1cc(O)cc(c1)C[C@H](NC(=O)[C@H](C(C)C)N(C)C(=O)CCNC1=NCCO1)C(=O)N1CCC[C@H](N1)C(=O)OCC(C)(C)C2` [Example 27], the IC50 was 1 to 10 µM on KRAS G12C; > 10 µM on KRAS G12S; > 10 µM at NRAS G12C; 1 to 10 µM on KRAS G12V; 1 to 10 µM on KRAS WT; 1 to 10 µM on KRAS G13D. The results for the IC50 on KRAS G12D and at KRAS G13C were > 10 µM and 1 to 10 µM, respectively.

For `CCn1c(-c2cnccc2COC)c2c3cc(ccc31)-c1cc(O)cc(c1)C[C@H](NC(=O)[C@@H](CCNC(=O)NCCCl)C(C)C)C(=O)N1CCC[C@H](N1)C(=O)OCC(C)(C)C2` [Example 26], the IC50 was 1 to 10 µM on KRAS G12C; > 10 µM on KRAS G12S; 1 to 10 µM at NRAS G12C; 1 to 10 µM on KRAS G12V; 1 to 10 µM on KRAS WT; 1 to 10 µM at KRAS G13D. In addition, the IC50 on KRAS G12D and on KRAS G13C was > 10 µM throughout.

In the case of `CCn1c(-c2cnccc2COC)c2c3cc(ccc31)-c1cc(O)cc(c1)C[C@H](NC(=O)[C@H](C(C)C)N(C)C(=O)N1CCCN(C(=O)[C@@H]3CN3)CC1)C(=O)N1CCC[C@H](N1)C(=O)OCC(C)(C)C2` [Example 45], the IC50 was in the range of 0.01 to 0.1 µM on KRAS G12C; 0.1 to 1 µM on KRAS G12S; 0.01 to 0.1 µM on NRAS G12C; 0.1 to 1 µM on KRAS G12V; 0.01 to 0.1 µM at KRAS WT; 0.1 to 1 µM at KRAS G13D. Also, the values for the IC50 on KRAS G12D and on KRAS G13C were 0.1 to 1 µM and 0.01 to 0.1 µM, respectively.

On to `CCn1c(-c2cccnc2COC)c2c3cc(ccc31)-c1cc(O)cc(c1)C[C@H](NC(=O)[C@H](C(C)C)N(C)C(=O)CNC1=NCCO1)C(=O)N1CCC[C@H](N1)C(=O)OCC(C)(C)C2` [Example 28], for which the IC50 was 1 to 10 µM at KRAS G12C; > 10 µM on KRAS G12S; 1 to 10 µM at NRAS G12C; 1 to 10 µM on KRAS G12V; > 10 µM on KRAS WT; 1 to 10 µM on KRAS G13D. Besides, the figures for the IC50 on KRAS G12D and on KRAS G13C were > 10 µM and 1 to 10 µM, respectively.

Regarding `CCn1c(-c2cnccc2COC)c2c3cc(ccc31)-c1cc(O)cc(c1)C[C@H](NC(=O)[C@H](C(C)C)N(C)C(=O)C1CCN(C(=O)[C@@H]3CN3)CC1)C(=O)N1CCC[C@H](N1)C(=O)OCC(C)(C)C2` [Example 4], the IC50 is 0.01 to 0.1 µM on KRAS G12C; 0.1 to 1 µM on KRAS G12S; 0.1 to 1 µM on NRAS G12C; 0.1 to 1 µM at KRAS G12V; 0.1 to 1 µM at KRAS WT; 0.1 to 1 µM at KRAS G13D. Further, the IC50 on KRAS G12D fell in the range of 1 to 10 µM; on KRAS G13C it was 0.01 to 0.1 µM.

As for `CCn1c(-c2cnccc2COC)c2c3cc(ccc31)-c1cccc(c1)C[C@H](NC(=O)[C@H](C(C)C)N1CC[C@@H](CN=C=NCCOC)C1)C(=O)N1CCC[C@H](N1)C(=O)OCC(C)(C)C2` [Example 80], the IC50 was 0.1 to 1 µM on KRAS G12C; 1 to 10 µM at KRAS G12S; 0.1 to 1 µM on NRAS G12C; 1 to 10 µM on KRAS G12V; 1 to 10 µM at KRAS WT; > 10 µM on KRAS G13D. In addition, the IC50 on KRAS G12D and at KRAS G13C was 1 to 10 µM throughout.

Take `CCn1c(-c2cnccc2COC)c2c3cc(ccc31)-c1cc(O)cc(c1)C[C@H](NC(=O)[C@H](C(C)C)N(C)C(=O)CCN(C)C(=O)[C@H]1CN1)C(=O)N1CCC[C@H](N1)C(=O)OCC(C)(C)C2` (single isomer, unassigned) [Example 41]: the IC50 on KRAS G12C was < 0.01 µM; on KRAS G12S, 0.1 to 1 µM; on NRAS G12C, < 0.01 µM; on KRAS G12V, 0.1 to 1 µM; on KRAS WT, 0.1 to 1 µM; at KRAS G13D it was 0.1 to 1 µM. The IC50 was 0.1 to 1 µM at KRAS G12D and 0.01 to 0.1 µM at KRAS G13C.

Consider `CCn1c(-c2cnccc2COC)c2c3cc(ccc31)-c1cccc(c1)C[C@H](NC(=O)[C@H](C(C)C)N(C)C(=O)CCN=C=NCc1c(OC)cccc1OC)C(=O)N1CCC[C@H](N1)C(=O)OCC(C)(C)C2` [Example 75], for which the IC50 was 0.1 to 1 µM at KRAS G12C; > 10 µM at KRAS G12S; 0.1 to 1 µM on NRAS G12C; 1 to 10 µM at KRAS G12V; > 10 µM at KRAS WT; > 10 µM on KRAS G13D. For the same compound, the IC50 on KRAS G12D and on KRAS G13C was > 10 µM throughout.

For the compound `CCn1c(-c2cnccc2COC)c2c3cc(ccc31)-c1cc(O)cc(c1)C[C@H](NC(=O)[C@H](C(C)C)N(C)C(=O)CN1C(=O)[C@H]3N[C@H]3C1=O)C(=O)N1CCC[C@H](N1)C(=O)OCC(C)(C)C2` [Example 98], the concentration for half-maximal inhibition (IC50) on KRAS G12C was in the range of 0.1 to 1 µM; at KRAS G12S, 1 to 10 µM; on NRAS G12C, 1 to 10 µM; at KRAS G12V, 1 to 10 µM; at KRAS WT it was 0.1 to 1 µM; at KRAS G13D, 1 to 10 µM. In addition, the figures for the IC50 on KRAS G12D and on KRAS G13C were 1 to 10 µM and 0.1 to 1 µM, respectively.

In the case of `CCn1c(-c2cnccc2COC)c2c3cc(ccc31)-c1cccc(c1)C[C@H](NC(=O)[C@H](C(C)C)N1CC[C@H](CN=C=Nc3ccc(OC)cc3)C1)C(=O)N1CCC[C@H](N1)C(=O)OCC(C)(C)C2` [Example 81], the concentration for half-maximal inhibition (IC50) was 0.1 to 1 µM at KRAS G12C; > 10 µM on KRAS G12S; 1 to 10 µM on NRAS G12C; 1 to 10 µM at KRAS G12V; > 10 µM on KRAS WT; > 10 µM at KRAS G13D. Also, the IC50 on KRAS G12D and on KRAS G13C was > 10 µM in each case.

On to `CCn1c(-c2cnccc2COC)c2c3cc(ccc31)-c1cc(O)cc(c1)C[C@H](NC(=O)[C@H](C(C)C)N(C)C(=O)[C@H]1CCN(C(=O)[C@H]3CN3)C1)C(=O)N1CCC[C@H](N1)C(=O)OCC(C)(C)C2` [Example 1, (3S)-1-((R)-aziridine-2-carbonyl)-N-((2S)-1-(((6^3S,4S)-1^1-ethyl-25-hydroxy-1^2-(4-(methoxymethyl)pyridin-3-yl)-10,10-dimethyl-5,7-dioxo-6^1,6^2,6^3,6^4,6^5,6^6-hexahydro-1^1H-8-oxa-1 (5,3)-indola-6 (1,3)-pyridazina-2 (1,3)-benzenacycloundecaphane-4-yl)amino)-3-methyl-1-oxobutan-2-yl)-N-methylpyrrolidine-3-carboxamide], for which the IC50 at KRAS G12C is < 0.01 µM; at KRAS G12S, 0.01 to 0.1 µM; at NRAS G12C, < 0.01 µM; at KRAS G12V, 0.01 to 0.1 µM; at KRAS WT, 0.1 to 1 µM; on KRAS G13D it was 0.1 to 1 µM. The IC50 on KRAS G12D and at KRAS G13C was 0.1 to 1 µM throughout.

These data come from US20250195521A1 (Revolution Medicines, Inc., priority 2020, published 2025).
